Results from patent publication US8163476B2, “CUDR as biomarker for cancer progression and therapeutic response” (The Chinese University of Hong Kong, priority 2004, dated 2012).

Assays:
[1] = system: stable CUDR transfectant of A431 cells; assay: DNA fragmentation assay (apoptotic response) in stable CUDR transfectants of A431 cells; assay type: cell-based, human; conditions: CUDR transfectants versus A431 cells transfected with empty vector; drug for 3 days; FIGS. 5B and 5D
Experimental: (§1) A431 cells were transfected with a vector carrying the full-length CUDR cDNA or an empty vector. After transfection, the cells were selected with G418 and individual colony was picked for establishment as stable transfectants. The stable transfectants were maintained in culture supplemented with G418. The response of cells to drugs was measured by both MTT assay and DNA fragmentation assay.
DNA fragmentation assay, one of the common methods, was conducted to assess the apoptotic response of cells upon treatment with anticancer drug. The cells were seeded in 60 mm Petri dish for 2 days and then exposed to various concentrations of DOX or Taxol for 3 days. After incubation, the cells were lysed in lysis buffer containing Tris-HCl, SDS, EDTA and protease K and incubated at 45° C. for 2 h. After phenol/chloroform extraction, DNA was precipitated with sodium acetate and 100% ethanol. After overnight digestion with RNase A at 37° C., 40 μg of the DNA sample were separated on 1.5% EtBr staining agarose gel. The DNA fragmentation pattern was viewed with UV light box. The presence of the “DNA laddering” pattern indicates the induction of apoptosis in cells; the more extensive the laddering pattern, the more significant the apoptosis induction. AN: control cells, A431 cells transfected with an empty vector; AG: stable CUDR transfectant of A431 cells; and M: 100 bp marker.

[2] = system: A431 parent cells, A5A and A10A cells; assay: Response of A431 sublines to doxorubicin by MTT assay; assay type: cell-based, human; conditions: A431/A5A and A10A cells versus A431 parent cells; incubated with drug for 5 days; FIG. 1
Experimental: Responses of A431 parent cells, A5A and A10A cells to doxorubicin (DOX) were compared in this Example.
A431/A5A cells were A431 cells survived from treatment with 5 μg/ml of DOX, and A10A cells were derived from A5A cells survived from treatment with 10 μg/ml of DOX.
Cells were seeded in 96-well plates for 2 days and incubated with various concentrations of DOX for 5 days. At the end of the incubation, the cells were incubated in 50 μl of a 0.1 mg/ml solution of 3-[4,5-dimethylthiaol-2-yl]-2,5-diphenyltetrazolium bromide (MTT) at 37° C. for 3 h and lysed in 150 μl of dimethyl sulfoxide at room temperature for 30 min. The absorbance of each well was measured at 580 nm in a microplate reader. The survival percentage of cells was calculated as the ratio between cells with drug treatment and cells without drug treatment.

[3] = system: stable CUDR transfectant of A431 cells; assay: Response of stable CUDR transfectants of A431 cells to DOX and Taxol by MTT assay; assay type: cell-based, human; conditions: CUDR transfectants versus A431 cells transfected with empty vector; drug for 5 days; FIGS. 5A and 5C
Experimental: as §1
For the MTT assay, the cells were seeded in a 96-well plate for 2 days and incubated with various concentrations of DOX or Taxol for 5 days. At the end of the incubation, the cells were incubated with 50 μl of a 0.1 mg/ml solution of 3-[4,5-dimethylthiaol-2-yl]-2,5-diphenyltetrazolium bromide (MTT) at 37° C. for 3 h and lysed in 150 μl of dimethyl sulfoxide at room temperature for 30 min. The absorbance of each well was measured at 580 nm in a microplate reader. The percentage of cell survival was calculated as the ratio between cells with drug treatment and cells without drug treatment. The MTT results for DOX and Taxol were shown in FIGS. 5A and 5C respectively. ◯: control cells, i.e. A431 cells transfected with empty vector; ▴: stable CUDR transfectant of A431 cells. Error bar: standard deviation.

[4] = system: Human squamous carcinoma A431 cells; assay: Doxorubicin sensitivity of A431 cells after transfection with full-length CUDR or CUDR antisense oligonucleotides (MTT assay); assay type: cell-based; conditions: plasmid 24 h or oligonucleotides 4 h, then DOX for 48 h
Experimental: The role of CUDR in sensitivity of cells to doxorubicin was examined. Human squamous carcinoma A431 cells were transfected with either plasmid carrying the full-length CUDR cDNA or antisense oligonucleotides of CUDR. The cells were seeded in a 96-well plate for 4 h before incubation with full-length CUDR plasmid DNA for 24 h or CUDR oligonucleotides for 4 h. After transfection, the cells were incubated with DOX for 48 h. The cell survival was measured by MTT assay. Furthermore, the CUDR mRNA level after transfection was examined by Northern blot analysis.
In FIG. 4A, ---o--- (C): cells without transfection; -▪- (CUDR): cells transfected with full length CUDR. In FIG. 4B, ---o--- (C): Cells without transfection treatment; -●- (S): transfection with sense CUDR oligonucleotides; -▪- (AS): transfection with CUDR antisense oligonucleotides.
Antisense sequence for CUDR was: 5′-[…]-3′ (nt1347-1367) (SEQ ID NO:9) and the sequence for the sense oligonucleotides was complementary to that of the antisense.

| Compound | apoptotic response of cells upon drug treatment (DNA laddering) [1] | response of cells to drug (survival percentage of cells) [2] | response of cells to drug (percentage of cell survival) [3] | effect of transfection on doxorubicin sensitivity of cells (cell survival) ([4]; FIG. 4) | effect of transfection on doxorubicin sensitivity of cells (cell survival) ([4]; FIG. 4, listed as antisense CUDR nucleic acids) |
| --- | --- | --- | --- | --- | --- |
| COc1cccc2c1C(=O)c1c(O)c3c(c(O)c1C2=O)C[C@@](O)(C(=O)CO)C[C@@H]3O[C@H]1C[C@H](N)[C@H](O)[C@H](C)O1 [DOX, doxorubicin] | more refractory to the apoptosis | more resistant | more resistant | – | – |
| CC(=O)O[C@H]1C(=O)[C@@]2(C)[C@H]([C@H](OC(=O)c3ccccc3)[C@]3(O)C[C@H](OC(=O)[C@H](O)[C@@H](NC(=O)c4ccccc4)c4ccccc4)C(C)=C1C3(C)C)[C@]1(OC(C)=O)CO[C@@H]1C[C@@H]2O [Taxol] | more refractory to the apoptosis | – | more resistant | – | – |
| antisense CUDR oligonucleotides: Antisense sequence for CUDR: 5′-CAAGGTGCCAGTTAGCGTAT-3′ (nt1347-1367) (SEQ ID NO:9) (listed as DNA, chemistry not given here) | – | – | – | increased the DOX sensitivity of cells | increase the drug sensitivity of cancer cells |
